Measurements reported in patent publication US20230219886A1, “NOVEL SELENO-NSAID ANALOGS AND USES THEREOF” (THE PENN STATE RESEARCH FOUNDATION, priority 2020, published 2023).
Entries after “also recorded” stand apart in the source; their conditions may differ.

Columns and labels:
HT-29 (CRC cells) = assay: NCI-60 one-dose screen, HT-29; assay type: cell-based, human; conditions: HT-29, 10 μM, 48 h
Text: (§1) NCI-60 Analysis. 1a and 6a were submitted to National Cancer Institute's (NCI) Developmental Therapeutics Program (DTP) where the cytotoxicity profile was investigated across their 60 human cancer cell line panel according to the protocol available on multiple sources (71-73, 83). The COMPARE algorithm (73), was utilized to evaluate the activity profile of 6a in comparison to those of known cytotoxins established in marketed drugs and standard agent data sets in order to correlate plausible modes of action.
(§2) NCI-60 analysis. Compounds 1a, 5a and 6a were submitted to the National Cancer Institute's (NCI) Developmental Therapeutics Program (DTP). NCI-60 program consists in a panel of 60 human cancer cell lines from a variety of cancers, including refractory tumors such as lung, ovarian, CRC, breast, brain and renal cancers, and melanomas together with more treatable cancers such as leukemias (71). 1a [NSC: 803071], 5a [NSC: 820332] and 6a [NSC: 811013] were initially screened at one dose (10 μM) at 48 h. Then, NCI selected only compound 6a to perform dose-response characterization (72).

[1] = test system: NCI-H226 (non-small cell lung cancer); assay: NCI-60 one-dose screen, NCI-H226; assay type: cell-based, human; conditions: NCI-H226, 10 μM, 48 h
Text: as §1, §2

HT-29 cells = assay: Cell cycle analysis by flow cytometry; assay type: cell-based, human; conditions: HT-29, 24 h; for population of cells in the S-phase: compared with vehicle; for population of cells in G1 and G2/M phases: compared with vehicle (DMSO)
Method: Cell Cycle Analysis. Cell cycle analyses were determined by following a flow cytometry protocol as described earlier (82). In brief, HT-29 cells were serum deprived for 72 hours to get them synchronized. At the end of 72 hours, cells were supplied with fresh medium or fresh medium with 1, 2.5, 5 and 10 μM of 1a and 6a for 24 hours. After each time point, the cells were fixed in ice cold 70% ethanol. Fixed cells were washed with 1×PBS and suspended in PI staining solution. PI staining solution was made by adding 0.1% (v/v) triton X-100, 20 mg of DNase-free RNase A, and 2 mg of PI in 100 mL of PBS. After staining for 15 min, the cells were analyzed by flow cytometer (Coulter Epics XL, Beckman Coulter).
Compounds 1a and 6a inhibited CRC cell growth by inducing cell cycle arrest. We investigated the effect 1a and 6a on the cell cycle by flow cytometry.

LC: EKVX = assay: NCI-60 dose-response, EKVX; assay type: cell-based, human; conditions: 48 h
Text: as §1, §2

CNS: SF-539 = assay: NCI-60 dose-response, SF-539; assay type: cell-based, human; conditions: SF-539, 48 h
Text: as §1, §2

LC: HOP-62 = assay: NCI-60 dose-response, HOP-62; assay type: cell-based, human; conditions: HOP-62, 48 h
Text: as §1, §2

OV: OVCAR-5 = assay: NCI-60 dose-response, OVCAR-5; assay type: cell-based, human; conditions: OVCAR-5, most resistant cell line
Text: as §1, §2

ME: LOX IMVI = assay: NCI-60 dose-response, LOX IMVI; assay type: cell-based, human; conditions: 48 h
Text: as §1, §2

BxPC3 cells [2] = assay: Subcutaneous xenograft tumor inhibition study in athymic nude mice; assay type: in vivo
Method: (§3) The cytotoxic response of 6a on pancreatic ductal adenocarcinoma cell lines (Panc-1, MIA PaCa-2 and BxPC3) was evaluated using MTT assay. […] To determine whether the in vitro efficacy of 6a translates to in vivo models, we performed a pilot tumor inhibition study in xenograft mouse model using BxPC3 cells. Athymic nude mice were subcutaneously injected with BxPC3 cells. After two weeks, mice were injected intraperitoneally with vehicle DMSO (control) or 6a (three times a week at a dose of 4 mg/Kg in 100 μL of DMSO). Tumor size and animal weights were measured twice a week.

[3] = test system: NCI-60 human cancer cell line panel; assay: NCI-60 dose-response, whole panel; assay type: cell-based
Text: as §1, §2

BxPC3 cells [4] = assay: MTT assay, pancreatic ductal adenocarcinoma cells BxPC3; assay type: cell-based
Method: as §3

CNS: SF-295 = assay: NCI-60 dose-response, SF-295; assay type: cell-based, human; conditions: SF-295, 48 h
Text: as §1, §2

[5] = Systemic toxicity in xenograft mice; assay type: in vivo
Method: as §3

RE: A498 = assay: NCI-60 dose-response, A498; assay type: cell-based, human; conditions: A498, 48 h
Text: as §1, §2

[6] = read-out: LC50 (the source's name)
[7] = 4 mg/Kg i.p. three times a week

## C[Se]C(=O)c1ccccc1OC(C)=O [Compound 1a, 2-((methylselanyl)carbonyl)phenyl acetate]
HT-29 (CRC cells)
  Growth percent (GP): < 12%
[1]
  Growth percent (GP): < 12%
HT-29 cells
  population of cells in the S-phase: drastically reduced
  population of cells in G1 and G2/M phases: increase

## C[Se]C(=O)CC1=C(C)/C(=C/c2ccc([S+](C)[O-])cc2)c2ccc(F)cc21 (stereo not drawn) [Compound 6a, Se-methyl (Z)-2-(5-fluoro-2-methyl-1-(4-(methylsulfinyl)benzylidene)-1H-indenyl)ethaneselenoate]
LC: EKVX
  GI50: < 10 nM
  TGI: 10.8 nM
LC: EKVX; [6]
  CC50: 861 nM
CNS: SF-539
  GI50: 105 nM
  TGI: 275 nM
CNS: SF-539; [6]
  CC50: 718 nM
LC: HOP-62
  GI50: < 10 nM
  LC50: 941 nM
  TGI: 155 nM
OV: OVCAR-5
  GI50: 47 nM
  TGI: 410 nM
OV: OVCAR-5; [6]
  CC50: 3900 nM
ME: LOX IMVI
  GI50: 14.1 nM
  LC50 (concentration giving 50% net cell kill): 62.1 nM
  TGI: 29.6 nM
BxPC3 cells [2]; 4 mg/Kg i.p. three times a week, 22 days since start of treatment
  reduction of tumor weight as compared to control mice: 42.9%
BxPC3 cells [2]; 4 mg/Kg i.p., three times a week, nude mice xenograft
  tumor growth: significantly inhibited; also recorded: significantly reduced
HT-29 cells
  population of cells in the S-phase: drastically reduced
  population of cells in G1 and G2/M phases: increase
[3]; LE:SR, CCRF-CEM, HCT-116, HL60, NCI-H522, MOLT-4
  cytotoxic activity towards the 6 most sensitive cells of the panel: negligible
[3]; TK10, SK-MEL-28, SNB-19, SK-OV-3, NCI-H322M, OVCAR-5
  activity towards the 6 most resistant cells: outstanding activity
[3]; in all cell lines, except for seven
  TGI values: below 12 μM
[3]; in four NSCLS and two CNS cell lines
  GI50: < 10 nM
BxPC3 cells [4]
  IC50: 1000 nM
CNS: SF-295
  GI50: 24.2 nM
  LC50: 386 nM
  TGI: 107 nM
[5]; [7]
  alanine aminotransferase (SGPT): 19 U/L
  bilirubin toxicity: 0.40 mg/dL
  blood urea nitrogen: 23 mg/dL
  body weight loss as compared to the control mice: did not show any significant weight loss
[5]; at the dose used (4 mg/Kg)
  systemic toxicity: no evidence of systemic toxicity
RE: A498
  GI50: 38.8 nM
  TGI: 184 nM
RE: A498; [6]
  CC50: 658 nM
